Several values for one entry are separate records, joined by “and”; a condition that tells them apart may be missing. Identical values can stand only once. Like-named read-outs stand apart in the source and are kept apart here.
Legend:
MDM2 = biological target: T1, MDM2 (Homo sapiens, UniProt Q00987); experiment: Inhibition test of MDM2-P53 (GST-MDM2, Biotin-P53, Anti-GST-Tb, SA-XL665); assay type: binding
T1 construct: made in house
How it was run: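 Compounds, serially diluted 5-fold (twelve concentrations), were shaken for 90 min at 25° C with a mix of GST-MDM2 (4 nM final), Biotin-P53, anti-GST-Tb and SA-XL665. Buffer: 1×PBS, 0.1% BSA, 5 mM DTT, 1 mM AEBSF; signal read on a microplate reader.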

[1] = Pharmacokinetics in ICR mice after intravenous and intragastric administration; assay type: in vivo; conditions: for MRT last: read-out: MRT(0-t); for MRT inf: read-out: MRT(0-∞); for Vd: read-out: Vz
How it was run: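 Male ICR mice (6-9 weeks, 20-30 g, n=3 per route) were fasted overnight and dosed at 2 mg/kg i.v. or 5 mg/kg intragastrically in 5% DMSO/40% PEG400/55% (10% HP-β-CD in saline). Plasma levels were measured by LC-MS/MS after protein precipitation (LLOQ 1 ng/mL), and non-compartmental PK parameters were calculated.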

[2] = system: human osteosarcoma cell line SJSA-1; experiment: Inhibition of proliferation of human osteosarcoma cell line SJSA-1 (DAPI staining, In Cell Analyzer); conditions: Homo sapiens, SJSA-1, 72 h, read-out: IC50 (nM), inhibitory activity on proliferation of human osteosarcoma cell line SJSA-1, SJSA-1, incubated 72 h
[3] = IV 2 mg/kg, ICR mice, individual animal, 2 mg/kg
[4] = PO 5 mg/kg, ICR mice, individual animal, 5 mg/kg
[5] = male, ICR, mouse, plasma, iv, 2 mg/kg, IV 2 mg/kg, ICR mice, Mean
[6] = male, ICR, mouse, plasma, iv, 2 mg/kg, IV 2 mg/kg, ICR mice, individual animal
[7] = male, ICR, mouse, plasma, po, 5 mg/kg, PO 5 mg/kg, ICR mice, Mean
[8] = male, ICR, mouse, plasma, po, 5 mg/kg, PO 5 mg/kg, ICR mice, individual animal

T1 sequence (Q00987 whole entry): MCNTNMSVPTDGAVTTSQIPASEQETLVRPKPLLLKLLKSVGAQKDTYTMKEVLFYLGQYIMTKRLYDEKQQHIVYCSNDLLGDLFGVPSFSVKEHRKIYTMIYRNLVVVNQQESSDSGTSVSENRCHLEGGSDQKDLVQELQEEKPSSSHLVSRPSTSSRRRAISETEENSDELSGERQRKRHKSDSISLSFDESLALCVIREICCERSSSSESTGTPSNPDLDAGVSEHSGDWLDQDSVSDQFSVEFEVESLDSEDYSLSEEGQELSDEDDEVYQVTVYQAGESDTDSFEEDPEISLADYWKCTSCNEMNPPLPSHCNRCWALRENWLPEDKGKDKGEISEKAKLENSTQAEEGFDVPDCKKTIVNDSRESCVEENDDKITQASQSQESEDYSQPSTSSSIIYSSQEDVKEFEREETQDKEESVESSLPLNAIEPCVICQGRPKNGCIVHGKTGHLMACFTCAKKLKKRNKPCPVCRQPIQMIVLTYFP

COc1cc(OC)c(-c2nc3c(n2C(C)C)[C@@]2(C(=O)Nc4cc(Cl)ccc42)N(c2cc(Cl)ccc2C)C3=O)cn1 [Example S-11, (S)-6-chloro-5′-(5-chloro-2-methylphenyl)-2′-(4,6-dimethoxypyridin-3-yl)-3′-isopropyl-3′H-spiro[dihydroindole-3,4′-pyrrolo[3,4-d]imidazole]-2,6′(5′H)-dione]
IC50 (MDM2): 1.58 nM | AUC(0-t) [1, 3]: 3578.38 ng·h/mL and 4225.58 ng·h/mL | AUC(0-∞) [1, 3]: 3680.24 ng·h/mL and 4820.40 ng·h/mL | CL [1, 3]: 9.06 mL/min/kg and 6.92 mL/min/kg | Cmax [1, 3]: 1376.51 ng/mL and 1519.69 ng/mL | MRT(0-t) [1, 3]: 1.43 h and 1.81 h | MRT(0-∞) [1, 3]: 1.61 h and 2.70 h | Vz [1, 3]: 0.91 L/kg and 1.25 L/kg | t1/2 [1, 3]: 2.09 h | F* ([1]; PO 5 mg/kg vs IV 2 mg/kg, ICR mice): 102.51% | AUC(0-t) [1, 4]: 8536.56 ng·h/mL and 11568.40 ng·h/mL | AUC(0-∞) [1, 4]: 8816.41 ng·h/mL and 11784.98 ng·h/mL | Cmax [1, 4]: 1573.02 ng/mL and 2144.69 ng/mL | MRT(0-t) [1, 4]: 2.87 h | MRT(0-∞) [1, 4]: 3.11 h and 3.05 h | Tmax [1, 4]: 2.00 h | t1/2 [1, 4]: 1.55 h and 1.33 h | AUC(0-inf) [1, 5]: 3920 ng·h/mL | clearance [1, 5]: 8.74 mL/min/kg | AUC(0-t) ([1]; male, ICR, mouse, plasma, iv, 2 mg/kg, IV 2 mg/kg, ICR mice, Mean, read-out: AUC(0-t)): 3660 ng·h/mL | Cmax ([1]; male, ICR, mouse, plasma, iv, 2 mg/kg, IV 2 mg/kg, ICR mice, Mean, read-out: Cmax): 1400 ng/mL | MRT last [1, 5]: 1.55 h | MRT inf [1, 5]: 1.95 h | Tmax ([1]; male, ICR, mouse, plasma, iv, 2 mg/kg, IV 2 mg/kg, ICR mice, Mean, read-out: Tmax): 0.5 h | Vd [1, 5]: 1.06 L/kg | half-life ([1]; male, ICR, mouse, plasma, iv, 2 mg/kg, IV 2 mg/kg, ICR mice, Mean, read-out: t1/2 (converted)): 1.46 h | AUC(0-inf) [1, 6]: 3250 ng·h/mL | clearance [1, 6]: 10.3 mL/min/kg | AUC(0-t) ([1]; male, ICR, mouse, plasma, iv, 2 mg/kg, IV 2 mg/kg, ICR mice, individual animal, read-out: AUC(0-t)): 3170 ng·h/mL | Cmax ([1]; male, ICR, mouse, plasma, iv, 2 mg/kg, IV 2 mg/kg, ICR mice, individual animal, read-out: Cmax): 1300 ng/mL | MRT last [1, 6]: 1.4 h | MRT inf [1, 6]: 1.55 h | Tmax ([1]; male, ICR, mouse, plasma, iv, 2 mg/kg, IV 2 mg/kg, ICR mice, individual animal, read-out: Tmax): 0.5 h | Vd [1, 6]: 1.02 L/kg | half-life ([1]; male, ICR, mouse, plasma, iv, 2 mg/kg, IV 2 mg/kg, ICR mice, individual animal, read-out: t1/2 (converted)): 1.15 h | AUC(0-inf) [1, 7]: 9790 ng·h/mL | AUC(0-t) ([1]; male, ICR, mouse, plasma, po, 5 mg/kg, PO 5 mg/kg, ICR mice, Mean, read-out: AUC(0-t)): 9370 ng·h/mL | Cmax ([1]; male, ICR, mouse, plasma, po, 5 mg/kg, PO 5 mg/kg, ICR mice, Mean, read-out: Cmax): 1790 ng/mL | MRT last [1, 7]: 2.92 h | MRT inf [1, 7]: 3.27 h | Tmax ([1]; male, ICR, mouse, plasma, po, 5 mg/kg, PO 5 mg/kg, ICR mice, Mean, read-out: Tmax): 1.33 h | half-life ([1]; male, ICR, mouse, plasma, po, 5 mg/kg, PO 5 mg/kg, ICR mice, Mean, read-out: t1/2 (converted)): 1.69 h | AUC(0-inf) [1, 8]: 8770 ng·h/mL | AUC(0-t) ([1]; male, ICR, mouse, plasma, po, 5 mg/kg, PO 5 mg/kg, ICR mice, individual animal, read-out: AUC(0-t)): 8020 ng·h/mL | Cmax ([1]; male, ICR, mouse, plasma, po, 5 mg/kg, PO 5 mg/kg, ICR mice, individual animal, read-out: Cmax): 1650 ng/mL | MRT last [1, 8]: 2.96 h | MRT inf [1, 8]: 3.66 h | Tmax ([1]; male, ICR, mouse, plasma, po, 5 mg/kg, PO 5 mg/kg, ICR mice, individual animal, read-out: Tmax): 1 h | half-life ([1]; male, ICR, mouse, plasma, po, 5 mg/kg, PO 5 mg/kg, ICR mice, individual animal, read-out: t1/2 (converted)): 2.18 h | AUC(0-t) ([1]; male, ICR, mouse, plasma, po, 5 mg/kg, oral intragastric administration 5 mg/kg, read-out: AUC0-t): 9370 ng·h/mL | half-life ([1]; male, ICR, mouse, plasma, po, 5 mg/kg, oral intragastric administration 5 mg/kg, read-out: half-life (converted)): 1.69 h | bioavailability ([1]; male, ICR, mouse, plasma, oral intragastric administration 5 mg/kg, read-out: bioavailability): 103% | IC50 [2]: 1.67 nM

Reference: US11339171B2, “MDM2 inhibitors” (Gan & Lee Pharmaceuticals, priority 2017, dated 2022)
